Columns and labels:
Test in all cases: IO staining of colonies of beta-D-galactosidase positive/negative bacteria (Table IVb)
Type in all cases: cell-based
[1] = test system: Aeromonas hydrophila 292; settings: Aeromonas hydrophila strain 292, b-gal +; 24 h on Nutrient Agar, 150 mg/l indicator, 100 mg/l IPTG; as to G: Growth of colonies: key: −: absent; +/−: weak; +: strong; ++: very strong
[2] = test system: Citrobacter freundii 181; settings: Citrobacter freundii strain 181, b-gal +; 24 h on Nutrient Agar, 150 mg/l indicator, 100 mg/l IPTG; as to C: Color of colonies: key: −: absent; +/−: weak; +: strong; ++: very strong; as to G: Growth of colonies: key: −: absent; +/−: weak; +: strong; ++: very strong
[3] = test system: Enterobacter aerogenes 242; settings: Enterobacter aerogenes strain 242, b-gal +; 24 h on Nutrient Agar, 150 mg/l indicator, 100 mg/l IPTG; as to C: Color of colonies: key: −: absent; +/−: weak; +: strong; ++: very strong; as to G: Growth of colonies: key: −: absent; +/−: weak; +: strong; ++: very strong
[4] = test system: Enterobacter cloacae 245; settings: Enterobacter cloacae strain 245, b-gal +; 24 h on Nutrient Agar, 150 mg/l indicator, 100 mg/l IPTG; as to C: Color of colonies: key: −: absent; +/−: weak; +: strong; ++: very strong; as to G: Growth of colonies: key: −: absent; +/−: weak; +: strong; ++: very strong
[5] = test system: Escherichia coli (O157:H7) 60; settings: Escherichia coli (O157:H7) strain 60, b-gal +; 24 h on Nutrient Agar, 150 mg/l indicator, 100 mg/l IPTG
[6] = test system: Escherichia coli 61; settings: Escherichia coli strain 61, b-gal +; 24 h on Nutrient Agar, 150 mg/l indicator, 100 mg/l IPTG; as to C: Color of colonies: key: −: absent; +/−: weak; +: strong; ++: very strong; as to G: Growth of colonies: key: −: absent; +/−: weak; +: strong; ++: very strong
[7] = test system: Escherichia coli 270; settings: Escherichia coli strain 270, b-gal +; 24 h on Nutrient Agar, 150 mg/l indicator, 100 mg/l IPTG; as to C: Color of colonies: key: −: absent; +/−: weak; +: strong; ++: very strong; as to G: Growth of colonies: key: −: absent; +/−: weak; +: strong; ++: very strong
[8] = test system: Klebsiella pneumoniae 164; settings: Klebsiella pneumoniae strain 164, b-gal +; 24 h on Nutrient Agar, 150 mg/l indicator, 100 mg/l IPTG; as to C: Color of colonies: key: −: absent; +/−: weak; +: strong; ++: very strong; as to G: Growth of colonies: key: −: absent; +/−: weak; +: strong; ++: very strong
[9] = test system: Serratia marcescens 40; settings: Serratia marcescens strain 40, b-gal +; 24 h on Nutrient Agar, 150 mg/l indicator, 100 mg/l IPTG; as to G: Growth of colonies: key: −: absent; +/−: weak; +: strong; ++: very strong
[10] = test system: Staphylococcus intermedius 31; settings: Staphylococcus intermedius strain 31, b-gal +; 24 h on Nutrient Agar, 150 mg/l indicator, 100 mg/l IPTG
[11] = test system: Staphylococcus saprophyticus 273; settings: Staphylococcus saprophyticus strain 273, b-gal +; 24 h on Nutrient Agar, 150 mg/l indicator, 100 mg/l IPTG; as to G: Growth of colonies: key: −: absent; +/−: weak; +: strong; ++: very strong
[12] = test system: Salmonella bongori 81; settings: Salmonella bongori strain 81, b-gal +; 24 h on Nutrient Agar, 150 mg/l indicator, 100 mg/l IPTG; as to C: Color of colonies: key: −: absent; +/−: weak/variable; +: strong; as to G: Growth of colonies: key: −: absent; +/−: weak; +: strong; ++: very strong
[13] = test system: Salmonella illa 73; settings: Salmonella illa strain 73, b-gal +; 24 h on Nutrient Agar, 150 mg/l indicator, 100 mg/l IPTG; also: key: −: absent; +/−: weak; +: strong; ++: very strong
[14] = test system: Shigella dysenteriae Serovar 1 131; settings: Shigella dysenteriae Serovar 1 strain 131, b-gal +/−; 24 h on Nutrient Agar, 150 mg/l indicator, 100 mg/l IPTG
[15] = test system: Shigella sonnei 133; settings: Shigella sonnei strain 133, b-gal +/−; 24 h on Nutrient Agar, 150 mg/l indicator, 100 mg/l IPTG; as to C: Color of colonies: key: −: absent; +/−: weak; +: strong; ++: very strong; as to G: Growth of colonies: key: −: absent; +/−: weak; +: strong; ++: very strong
[16] = test system: Yersinia enterocolitica 175; settings: Yersinia enterocolitica strain 175, b-gal +/−; 24 h on Nutrient Agar, 150 mg/l indicator, 100 mg/l IPTG; as to G: Growth of colonies: key: −: absent; +/−: weak; +: strong; ++: very strong
[17] = test system: Salmonella enteritidis 43; settings: Salmonella enteritidis strain 43, b-gal −; 24 h on Nutrient Agar, 150 mg/l indicator, 100 mg/l IPTG; also: key: −: absent; +/−: weak; +: strong; ++: very strong
[18] = test system: Bacillus subtilis 65; settings: Bacillus subtilis strain 65, b-gal −; 24 h on Nutrient Agar, 150 mg/l indicator, 100 mg/l IPTG; as to C: Color of colonies: key: −: absent; +/−: weak; +: strong; ++: very strong; as to F: Fluorescence of colonies: key: −: absent; +/−: weak; +: strong; ++: very strong
[19] = test system: Listeria monocytogenes (4b) 290; settings: Listeria monocytogenes (4b) strain 290, b-gal −; 24 h on Nutrient Agar, 150 mg/l indicator, 100 mg/l IPTG; as to C: Color of colonies: key: −: absent; +/−: weak; +: strong; ++: very strong; as to F: Fluorescence of colonies: key: −: absent; +/−: weak; +: strong; ++: very strong
[20] = test system: Pseudomonas aeruginosa 168; settings: Pseudomonas aeruginosa strain 168, b-gal −, 24 h on Nutrient Agar, 150 mg/l indicator, 100 mg/l IPTG; as to C: Color of colonies: key: −: absent; +/−: weak; +: strong; ++: very strong; as to G: Growth of colonies: key: −: absent; +/−: weak; +: strong; ++: very strong
[21] = test system: Shigella boydii 135; settings: Shigella boydii strain 135, b-gal −; 24 h on Nutrient Agar, 150 mg/l indicator, 100 mg/l IPTG; also: key: −: absent; +/−: weak; +: strong; ++: very strong
[22] = test system: Staphylococcus aureus 2; settings: Staphylococcus aureus strain 2, b-gal −, 24 h on Nutrient Agar, 150 mg/l indicator, 100 mg/l IPTG; as to F: Fluorescence of colonies: key: −: absent; +/−: weak; +: strong; ++: very strong
[23] = test system: Streptococcus agalactiae 195; settings: Streptococcus agalactiae strain 195, b-gal −; 24 h on Nutrient Agar, 150 mg/l indicator, 100 mg/l IPTG; as to C: Color of colonies: key: −: absent; +/−: weak; +: strong; ++: very strong; as to F: Fluorescence of colonies: key: −: absent; +/−: weak; +: strong; ++: very strong

**Q.** How did the “C: Color of colonies” value [1] turn out when `CC(=O)c1ccccc1-n1cc(O[C@@H]2O[C@H](CO)[C@H](O)[C@H](O)[C@H]2O)c2ccc(Cl)cc21` [Indicator I16a, 1-(2-Acetylphenyl)-6-chloro-1H-indol-3-yl-beta-D-galactopyranoside] was run?
**A.** +

**Q.** And the “F: Fluorescence of colonies” value [1]?
**A.** +

**Q.** What about the “G: Growth of colonies” value [1] of the same compound?
**A.** +

**Q.** And the “C: Color of colonies” value [2]?
**A.** +

**Q.** And the “F: Fluorescence of colonies” value [2]?
**A.** +

**Q.** And the “G: Growth of colonies” value [2]?
**A.** +

**Q.** What about the “C: Color of colonies” value [3] of the same compound?
**A.** +

**Q.** And the “F: Fluorescence of colonies” value [3]?
**A.** +

**Q.** What about the “G: Growth of colonies” value [3] of the same compound?
**A.** +

**Q.** And the “C: Color of colonies” value [4]?
**A.** +

**Q.** What about the “F: Fluorescence of colonies” value [4] of the same compound?
**A.** +

**Q.** And the “G: Growth of colonies” value [4]?
**A.** +

**Q.** What about the “C: Color of colonies” value [5] of the same compound?
**A.** +

**Q.** What about the “F: Fluorescence of colonies” value [5] of the same compound?
**A.** +

**Q.** And the “G: Growth of colonies” value [5]?
**A.** +

**Q.** What about the “C: Color of colonies” value [6] of the same compound?
**A.** +

**Q.** What about the “F: Fluorescence of colonies” value [6] of the same compound?
**A.** +

**Q.** And the “G: Growth of colonies” value [6]?
**A.** +

**Q.** And the “C: Color of colonies” value [7]?
**A.** +

**Q.** What about the “F: Fluorescence of colonies” value [7] of the same compound?
**A.** +

**Q.** And the “G: Growth of colonies” value [7]?
**A.** +

**Q.** What about the “C: Color of colonies” value [8] of the same compound?
**A.** +

**Q.** And the “F: Fluorescence of colonies” value [8]?
**A.** +

**Q.** What about the “G: Growth of colonies” value [8] of the same compound?
**A.** +

**Q.** What about the “C: Color of colonies” value [9] of the same compound?
**A.** +

**Q.** And the “F: Fluorescence of colonies” value [9]?
**A.** +

**Q.** And the “G: Growth of colonies” value [9]?
**A.** +

**Q.** What about the “C: Color of colonies” value [10] of the same compound?
**A.** +/−

**Q.** What about the “F: Fluorescence of colonies” value [10] of the same compound?
**A.** +/−

**Q.** What about the “G: Growth of colonies” value [10] of the same compound?
**A.** +/−

**Q.** What about the “C: Color of colonies” value [11] of the same compound?
**A.** +

**Q.** What about the “F: Fluorescence of colonies” value [11] of the same compound?
**A.** +

**Q.** What about the “G: Growth of colonies” value [11] of the same compound?
**A.** +

**Q.** And the “C: Color of colonies” value [12]?
**A.** +/−

**Q.** And the “F: Fluorescence of colonies” value [12]?
**A.** +/−

**Q.** And the “G: Growth of colonies” value [12]?
**A.** +

**Q.** And the “C: Color of colonies” value [13]?
**A.** −

**Q.** And the “F: Fluorescence of colonies” value [13]?
**A.** −

**Q.** And the “G: Growth of colonies” value [13]?
**A.** +

**Q.** What about the “C: Color of colonies” value [14] of the same compound?
**A.** −

**Q.** What about the “F: Fluorescence of colonies” value [14] of the same compound?
**A.** −

**Q.** And the “G: Growth of colonies” value [14]?
**A.** +

**Q.** And the “C: Color of colonies” value [15]?
**A.** +

**Q.** What about the “F: Fluorescence of colonies” value [15] of the same compound?
**A.** +

**Q.** What about the “G: Growth of colonies” value [15] of the same compound?
**A.** +

**Q.** And the “C: Color of colonies” value [16]?
**A.** −

**Q.** And the “F: Fluorescence of colonies” value [16]?
**A.** −

**Q.** And the “G: Growth of colonies” value [16]?
**A.** +

**Q.** And the “C: Color of colonies” value [17]?
**A.** −

**Q.** What about the “F: Fluorescence of colonies” value [17] of the same compound?
**A.** −

**Q.** And the “G: Growth of colonies” value [17]?
**A.** +

**Q.** What about the “C: Color of colonies” value [18] of the same compound?
**A.** −

**Q.** And the “F: Fluorescence of colonies” value [18]?
**A.** −

**Q.** What about the “G: Growth of colonies” value [18] of the same compound?
**A.** +

**Q.** And the “C: Color of colonies” value [19]?
**A.** −

**Q.** And the “F: Fluorescence of colonies” value [19]?
**A.** −

**Q.** What about the “G: Growth of colonies” value [19] of the same compound?
**A.** +/−

**Q.** And the “C: Color of colonies” value [20]?
**A.** −

**Q.** What about the “G: Growth of colonies” value [20] of the same compound?
**A.** +

**Q.** And the “F: Fluorescence of colonies” value ([20]; footnote 1: blue autofluorescence)?
**A.** +^1

**Q.** What about the “C: Color of colonies” value [21] of the same compound?
**A.** −

**Q.** What about the “F: Fluorescence of colonies” value [21] of the same compound?
**A.** −

**Q.** And the “G: Growth of colonies” value [21]?
**A.** +

**Q.** What about the “F: Fluorescence of colonies” value [22] of the same compound?
**A.** −

**Q.** And the “G: Growth of colonies” value [22]?
**A.** +/−

**Q.** And the “C: Color of colonies” value ([22]; footnote 2: S. aureus natural color)?
**A.** −

**Q.** And the “C: Color of colonies” value [23]?
**A.** −

**Q.** What about the “F: Fluorescence of colonies” value [23] of the same compound?
**A.** −

**Q.** And the “G: Growth of colonies” value [23]?
**A.** +/−

From US8940909B2, “Indicator platform” (Biosynth AG, priority 2009, dated 2015)
